Data as given in patent US7470831B1, “Genetic method” (Syngenta Limited, priority 1997, dated 2008).
Like-named read-outs stand apart in the source and are kept apart here.

Assays:
[1] = tested on: palcA:cyInv transgenic tobacco plants
Method: (§1) Phenotypic modification started 72 hours after ethanol induction and was strongest after 96 hours. The final phenotype was identical to the previously published results using the 35S CaMV promoter to drive the expression of cytosolic yeast invertase (Sonnewald et al Plant J. 1, 95 (1991)). Development of this phenotype followed maximal invertase activity and was most severe in transformant 28. Photosynthesis fluorescence measurements were used to monitor changes of quantum yield (Schreiber et al, in Ecophysiology of Photosynthesis Vol. 100, Schuize and Caldwell, Eds (Springer Verlag, Berlin, 1994), pp 49-70.) of all three transformant lines in vivo throughout the induction experiment.

[2] = tested on: palc:Inv transgenic tobacco plants; conditions: 1% ethanol root drench
Method: as §1
Fluorescence measurements were used to monitor changes in photosynthetic parameters during induction of invertase activity using the PAM-2000 instrument (Walz, Effeltrich, Germany). Quantum use efficiency (quantum yield) of photosystem II (PSII) was measured by applying a saturating light beam on light adapted leaves of wildtype and transformed plants (palc:Inv). Before each measurement, it was verified that the saturating pulse had reached a plateau to allow an accurate determination of Fm′. The intensities of the measuring and saturating light beam were adjusted to reach a FO′ value close to 0.4. Measurements were conducted on different leaves having reached 8% (A), 15% (B), or 45% (C) of maximal leaf area of five plants of each genotype at the indicated time points.
Quantum yield of three succeeding light adapted leaves (leaf A-C) starting from the top of the plant was measured using a PAM-2000 instrument at the time points indicated. Values given are the means +−SE (n=5). For plants of line 28, quantum yield was reduced by 23% (p<0.05) and 27% (p<0.05) and for plants of line 10 only by 6% and 17% (p<0.05), respectively.

[3] = tested on: alcA promoter (p35S:alcR / palcA:CAT transgenic tobacco line)
Method: (§2) A selected seedling was grown to maturity to produce a homozygous line. Seedlings of this plant were tested for CAT protein in comparison to seedlings of a similar plant transformed with a construct which expressed CAT from the constitutive high activity CaMV 35S promoter (Table 1).
(§3) Individual seedlings from a homozygous transgenic tobacco line carrying the CAT gene expressed from the alcA promoter were compared with those from a similar line transformed with p35S:CAT. […] Induction was achieved by the addition of 0.1% ethanol to the growth medium for 120 h. The induction medium was replaced at 58 h to maintain ethanol concentrations. One leaf was taken prior to induction, and one leaf after induction. CAT ELISA (Boehringer Mannheim) was performed on crude cell extracts; total protein was determined as described previously (Bradford, Anal Biochem 72: 243 (1976). All values are ng CAT protein per mg total protein, and represent the mean of nine individual replicates±one standard deviation.

[4] = tested on: CaMV 35S promoter (p35S:CAT transgenic tobacco line)
Method: as §2, §3

CCO [Ethanol, ethanol]
invertase activity in transgenic plants at two ethanol concentrations ([1]; 5% vs 1% ethanol (FIG. 3)): dose-dependent | time after first addition of ethanol at which elevated invertase activity was measurable ([1]; lines 10, 27 and 28, root drench 100 ml 1% ethanol (v/v)): 6 h | time after initial root drenching at which invertase activity reached a plateau ([1]; lines 10 and 27, root drench 100 ml 1% ethanol, repeated at 48 and 72 hours): 96 h | start of phenotypic modification after ethanol induction ([1]; palcA:cyInv lines, strongest after 96 hours): 72 h | reduction of quantum yield ([2]; line 10, leaf B (15% of maximal leaf area)): 6% | reduction of quantum yield ([2]; line 10, leaf C (45% of maximal leaf area), p<0.05): 17% | reduction of quantum yield ([2]; line 28, leaf B (15% of maximal leaf area), p<0.05): 23% | reduction of quantum yield ([2]; line 28, leaf C (45% of maximal leaf area), p<0.05): 27% | CAT activity of induced palc:CAT seedlings relative to ethanol-treated p35S:CAT seedlings ([3]; ethanol-induced palc:CAT vs ethanol-treated p35S:CAT): 55% | CAT activity of induced palc:CAT seedlings relative to untreated p35S:CAT seedlings ([3]; ethanol-induced palc:CAT vs untreated p35S:CAT): 39% | CAT protein level ([3]; homozygous palcA:CAT seedlings, 0.1% ethanol in growth medium for 120 h, mean of nine replicates ± one SD): 30.37 ± 3.91 ng CAT protein per mg total protein | reduction in CAT protein levels relative to the untreated control ([4]; ethanol-treated p35S:CAT seedlings): 29% | CAT protein level ([4]; p35S:CAT seedlings, 0.1% ethanol in growth medium for 120 h, mean of nine replicates ± one SD): 55.46 ± 10.85 ng CAT protein per mg total protein
